The values that follow come from patent publication US20230302082A1, “AGENT FOR REVERSIBLE OPENING OF NEURAL VASCULAR BARRIER” (YAMAGUCHI UNIVERSITY, priority 2020, published 2023).

Counter-ions that a name gives are not always drawn.

One data set has as its system neural vascular barrier. The data set is described as follows: Uptake of intravenously administered doxorubicin into cerebrum, liver and kidney with or without preadministration of CypA (doxorubicin fluorescence). It counts as in vivo, mouse. The method, then:
Further, fluorescence emitted by doxorubicin was used to evaluate the uptake of doxorubicin into the cerebrum, the liver and the kidney. […] Fujifilm Wako Pure Chemical Corp.), an anticancer drug with low intracerebral penetration, was injected into caudal veins of mice with or without pre-injection of CypA (200 μg/kg). Pre-injection of CypA was performed intravenously 3 hours prior to the injection of doxorubicin. Mice were sacrificed 3 hours after the injection of doxorubicin hydrochloride, and the cerebrum, the liver, and the kidney were collected and embedded and frozen in OCT compound. Next, frozen sections of 30 μm thickness were prepared and observed under an LSM710 laser confocal microscope (Carl Zeiss AG).

The subject of data set [1] is mouse brain microvascular endothelial cell line bEnd.3 cells. Description: Immunofluorescence staining and quantification of claudin-5 signals on the cell membranes of monolayer-cultured bEnd.3 cells. In kind it is cell-based. As to the method: (§1) In an in vitro system, mouse brain microvascular endothelial cell line bEnd.3 cells (obtained from the American Type Culture Collection) were grown as a monolayer at 37° C. under 5% CO^2 in Dulbecco's modified Eagle's medium containing 4500 mg/L glucose (Sigma-Aldrich) supplemented with 10% fetal bovine serum (FBS). CypA (200, 300 or 400 ng/ml: BioVendor R&D) was added to the culture supernatant of the monolayer-cultured bEnd.3 cells, followed by incubation for 3 hours. Subsequently, expression changes of claudin-5 in the bEnd.3 cells were observed by immunofluorescence staining, and claudin-5 signals on the cell membranes were quantified. Further, TEER, an index of vascular barrier function, was measured in the bEnd.3 cell monolayer.
The immunofluorescence staining was performed as follows. First, the cultured bEnd.3 cells were fixed with 100% methanol for 5 min at room temperature and incubated with 10% non-immune goat serum (Invitrogen) for 30 minutes to block non-specific binding of antibodies. Next, the cells were reacted with rabbit polyclonal antibodies against claudin-5 (1/25 dilution, Invitrogen) at 4° C. overnight. After washing with phosphate-buffered saline (PBS), the cells were incubated with Alexa Fluor 488 goat anti-rabbit IgG (1/200 dilution, Eugene) for 1 hour at room temperature under light protection. […] For a quantitative analysis, fluorescence intensities of claudin-5 on the plasma membranes were measured using an operation menu installed in LSMS Pascal6, 7.3. […] Fluorescence intensities were then quantified at points on the cell membranes that intersected the drawn straight lines. The mean value of the fluorescence intensities was calculated as an expression level of claudin-5 on the cell membranes of each monolayer at approximately 80 points. […]
The immunofluorescence staining, the quantification of the claudin-5 signals on the cell membranes, and the measurement of TEER in the bEnd.3 cell monolayer were performed in the same manner as in Example 1 except that CypA (300 ng/ml: BioVendor R&D) lacking PPlase activity was used as CypA. […]

The test system of another data set is bEnd.3 cell monolayer. The data set is described as follows: TEER (index of vascular barrier function) of the bEnd.3 cell monolayer. In kind it is cell-based, mouse. The method, then: as §1
The immunofluorescence staining, the quantification of the claudin-5 signals on the cell membranes, and the measurement of TEER in the bEnd.3 cell monolayer were performed in the same manner as in Example 1 except that CypA (300 ng/ml: BioVendor R&D) lacking PPlase activity was used as CypA.
In order to evaluate the opening effect of CypA on the neural vascular barrier over time, the same experiment as in Example 1 was performed while changing the treatment time of CypA. Specifically, CypA at a concentration of 300 ng/ml was applied to the cells, followed by incubation for 1, 3, 6, 9, and 12 hours. Then, the cells were subjected to the immunofluorescence staining, the quantification of the claudin-5 signals on the cell membranes, and the measurement of TEER in the bEnd.3 cell monolayer.

The test system of data set [2] is mouse retinal vasculature. The data set is described as follows: Claudin-5 expression in endothelial cell membranes of the retinal vasculature after intravenous CypA (immunofluorescence). In kind it is in vivo. Particulars: mouse retina, single intravenous injection 200 μg/kg. The text has this: Based on the results of Example 1, a change in the barrier function caused by CypA administration was examined in vivo using a mouse retinal tissue. Note that the retina is a tissue that is formed as an outgrowth of the central neural system during the process of ontogeny and is a part of the central neural system like the brain. Since the vascular system of the retina can be two-dimensionally observed and evaluated over the entire length in the longitudinal direction, the retina was used as an analysis material representing the central neural system in the present example.
(§2) Seven-week-old male C57B6/N mice (Japan SLC, Inc.) were given a single intravenous injection (200 μg/kg) of CypA. A change in the expression level of claudin-5 localized in the endothelial cell membranes of the retinal vasculature and permeability of the retinal vasculature were measured 3, 6, and 24 hours after the […] injection. The change in the expression of claudin-5 was measured by immunofluorescence staining using the rabbit polyclonal antibodies against claudin-5 in the same manner as in Example 1. The above-mentioned measurement of the permeability of the retinal vasculature was performed as follows.

The test system of data set [3] is mouse retinal vasculature. Description: Permeability of the retinal vasculature (leakage of injected tracer dye, index of blood-retinal barrier function). It counts as in vivo. Particulars: mouse retina, single intravenous injection 200 μg/kg. The method, then:
as §2
First, 500 μL of PBS containing 100 μg/mL Hoechst dye H33258 (molecular weight 534 Da, Sigma-Aldrich) and 1 mg/mL tetramethylrhodamine-conjugated lysine-fixable dextran (molecular weight 10,000 Da, Thermo Fisher Scientific) was injected into the left ventricle as a tracer dye. After injection of the Hoechst dye, eyes were enucleated and immediately fixed with 4% paraformaldehyde (PFA) for 15 min at room temperature under light protection, thereby preparing retinal flat mounts. They were mounted in a fluorescent mounting medium, and leakage of the injected tracer was observed under a Zeiss LSM510 META laser confocal microscope (Carl Zeiss AG) to measure the permeability of the retinal vasculature (an index of blood-retinal barrier function). Experiments were performed independently 3 times or more.

`COc1cccc2c1C(=O)c1c(O)c3c(c(O)c1C2=O)C[C@@](O)(C(=O)CO)C[C@@H]3O[C@H]1C[C@H](N)[C@H](O)[C@H](C)O1` [doxorubicin, Doxorubicin hydrochloride]: the “fluorescent signals of doxorubicin in the liver and the kidney” value with neural vascular barrier (mouse, doxorubicin hydrochloride 6.25 mg/kg i.v., 3 hours after injection, with or without pre-injection of CypA) is listed as “strong fluorescent signals of doxorubicin were detected”. The “doxorubicin fluorescence signal in the cerebrum” value in the data set on neural vascular barrier (mouse, doxorubicin hydrochloride 6.25 mg/kg i.v., 3 hours after injection, with preadministration of CypA 200 μg/kg i.v. 3 hours before) is recorded as “significant doxorubicin fluorescence signals were detected”; in the data set on neural vascular barrier (mouse, doxorubicin hydrochloride 6.25 mg/kg i.v., 3 hours after injection, without preadministration of CypA) it was “no doxorubicin fluorescence signal was detected”.

Regarding Cyclophilin A [CypA], the “claudin-5 level on the cell membranes” value in data set [1] (CypA 300 ng/ml, 3 hours after treatment (FIG. 3a, 3b)) was “decreased significantly”; in data set [1] (CypA 300 ng/ml, 6 hours (FIG. 3a, 3b)), “recovered to the level prior to the CypA stimulation”; in data set [1] (CypA 200, 300 or 400 ng/ml, 3 hours after treatment (FIG. 1a, 1B)), “significantly reduced”. The “barrier function (TEER)” value was “significantly decreased” in the data set on bEnd.3 cell monolayer (CypA 300 ng/ml, 3 hours after treatment (FIG. 3c)); “recovered to the state prior to the CypA stimulation” with bEnd.3 cell monolayer (CypA 300 ng/ml, 6 hours (FIG. 3c)); “significant reduction in the barrier function” in the data set with bEnd.3 cell monolayer (CypA 200, 300 or 400 ng/ml, 3 hours after treatment (FIG. 1c)). Besides, the “expression level of claudin-5 in the cell membranes of the peripheral microvascular endothelial cells” value was “decrease” in data set [2] (3 hours (FIG. 4a)) and “recovered to a physiological level” in data set [2] (24 hours (FIG. 4a)). The entries for the “leakage of the injected tracer dye” value in data set [3] (3 hours (FIG. 4b)), in data set [3] (6 hours (FIG. 4b)) and in data set [3] (24 hours (FIG. 4b)) were “increased”, “decreased after 6 hours as compared with after 3 hours” and “returned to an undetectable physiological level”, respectively. For the same compound, in the data set with neural vascular barrier (mouse cerebrum, CypA 200 μg/kg i.v. 3 hours before doxorubicin hydrochloride 6.25 mg/kg i.v.), the “effect of CypA preadministration on delivery of doxorubicin to the neural tissue parenchyma” value is “allowed the intravenously administered doxorubicin to pass through the neural vascular barrier and reach the neural tissue parenchyma”. Further, the “effect of CypA pre-injection on intensities of doxorubicin fluorescence signals in the liver and the kidney” value in the data set with neural vascular barrier (mouse, CypA 200 μg/kg i.v. 3 hours before doxorubicin hydrochloride 6.25 mg/kg i.v.) is “not significantly affected”.
